Assay: method code SF-AS, from DOI: 10.1002/chin.198834177
Conditions: pH 5.6

logD | Structure (SMILES)
0.35 | CC(C(N)=O)n1nnc2ccccc21 (stereo not given)
2.27 | CCOC(=O)CC(C)n1nnc2ccccc21 (stereo not given)
3.88 | CCCCC(C(=O)OCC)n1nc2ccccc2n1 (stereo not given)
2.6 | CCOC(=O)C(C)(C)n1nnc2ccccc21
0.86 | CC(C(N)=O)n1nc2ccccc2n1 (stereo not given)
3.32 | CCCCC(C(=O)OCC)n1nnc2ccccc21 (stereo not given)
3.05 | CCOC(=O)CCC(C)n1nc2ccccc2n1 (stereo not given)
1.15 | CC(CCC(N)=O)n1nnc2ccccc21 (stereo not given)
2.7 | CCOC(=O)CC(C)n1nc2ccccc2n1 (stereo not given)
2.34 | CCOC(=O)C(CC)n1nnc2ccccc21 (stereo not given)
1.25 | CCC(C(N)=O)n1nc2ccccc2n1 (stereo not given)
0.76 | CC(C)(C(N)=O)n1nnc2ccccc21
2.88 | CCOC(=O)C(CC)n1nc2ccccc2n1 (stereo not given)
1.87 | CCOC(=O)C(C)n1nnc2ccccc21 (stereo not given)
0.75 | CC(CC(N)=O)n1nnc2ccccc21 (stereo not given)
0.88 | CCC(C(N)=O)n1nnc2ccccc21 (stereo not given)
2.28 | CCCCC(C(N)=O)n1nc2ccccc2n1 (stereo not given)
3.38 | CCCC(C(=O)OCC)n1nc2ccccc2n1 (stereo not given)
2.82 | CCCC(C(=O)OCC)n1nnc2ccccc21 (stereo not given)
2.38 | CCOC(=O)C(C)n1nc2ccccc2n1 (stereo not given)
1.38 | CCCC(C(N)=O)n1nnc2ccccc21 (stereo not given)
1.16 | CC(C)(C(N)=O)n1nc2ccccc2n1
2.98 | CCOC(=O)C(C)(C)n1nc2ccccc2n1
1.88 | CCCCC(C(N)=O)n1nnc2ccccc21 (stereo not given)
1.35 | CC(CCC(N)=O)n1nc2ccccc2n1 (stereo not given)
3.63 | c1ccc2nn(C3CCCCC3)nc2c1
3.11 | c1ccc2c(c1)nnn2C1CCCCC1
1 | CC(CC(N)=O)n1nc2ccccc2n1 (stereo not given)
2.64 | CCOCC(=O)CCC(C)n1nnc2ccccc21 (stereo not given)
1.75 | CCCC(C(N)=O)n1nc2ccccc2n1 (stereo not given)

— the SangsterLogP compilation
